Test results reported in PMC6602958, “Pharmacokinetics of anti-infectious reagents in silkworms” (Scientific Reports, 2019).
Read-outs that look alike come from different tables or passages of the source. *1 amine or outer side, *2 acyl side, *3 side chain or, on linkers, in order; H or OH if unused. Where a SMILES comes first, the peptide text is derived from it. Bridges are numbered along the chain shown (N, C = ends). [ ]: non-standard residue; d: D form. The star is where a group is joined. hTyr(3S-OH,4S-OH,3'-OSO3H) = N[C@H](C(=O)O)[C@H](O)[C@@H](O)c1ccc(O)c(OS(=O)(=O)O)c1; Orn(4R-OH,5R-OH) = O=C([C@H](C[C@@H](O)[C@@H](O)N[*:3])N[*:1])[*:2]; Pro(3S-OH,4S-Me) = C[C@H]1CN[C@H](C(=O)O)[C@H]1O; X1 = CCCCCOc1ccc(-c2cc(-c3ccc(C(=O)*)cc3)no2)cc1; Gln(3R-OH) = NC(=O)C[C@@H](O)[C@H](N)C(=O)O; Hyp = O=C(O)[C@@H]1C[C@@H](O)CN1

Legend:
cytochrome P450 [1] = assay: Metabolism of luciferin derivatives in cultured silkworm midgut (P450-Glo, luminometer); format: in vitro ADME, Bombyx mori (silkworm); conditions: silkworm midgut incubated with luciferin substrate at 30 °C
[2] = Pharmacokinetics of antibiotics in silkworm hemolymph after injection (HPLC); conditions: for HPLC peak area in hemolymph: raw data of Fig. 1; for Time-course of the decrease in concentration in hemolymph (in words): after administration into hemolymph, alpha and beta phase; for Time-course of the decrease in concentration in hemolymph (in words) / Cltot (total body clearance): two-compartment model; for half-life: in vivo; for Cltot (total body clearance): silkworm, injection into hemolymph, dose per compound 10-50 mg/kg
Method: Antibiotics were injected into silkworm hemolymph and hemolymph was collected by cutting the legs at the indicated time.
Antibiotics dissolved in saline were injected into the hemolymph of 5th instar silkworms using a 1-mL syringe attached to a 27 G needle. Hemolymph was harvested from abdominal appendages by cutting them with scissors at the indicated time-points after administration, and mixed with an equal volume of acetone. Samples were centrifuged at 15,000 rpm for 5 min at 4 °C, and the supernatants were evaporated with a centrifuge evaporator[18]. The dried materials were dissolved in 50% methanol and filtrated through a 0.45-µm filter. […] The amount of antibiotics in the sample was quantified from the peak area of the chromatogram.

[3] = parameters: method as in PMID 15256761; conditions: rat, dose 1 mg/kg; cited from earlier work
cytochrome P450 [4] = assay: Decay of cytochrome P450 substrates in in vitro culture of the silkworm midgut (HPLC); conditions: for HPLC peak area of substrate, Sample 1 / HPLC peak area of substrate, Sample 2: silkworm (Bombyx mori); for HPLC peak area of substrate: midgut culture, raw data of Fig. 3
Method: Silkworm midgut was incubated in medium with cytochrome P450 substrates at 30 °C. The samples were collected, extracted by acetone, and evaporated. The amounts of substrates were determined by HPLC analysis.
Silkworms (5th instar, 5 days) were dissected in a buffer (10 mM HEPES/NaOH, 0.9% NaCl, pH 7.9), and isolated organs were incubated with 3 mL TC-100 medium containing 10% fetal bovine serum, 50 µg/ml gentamicin, and substrates for the metabolic reaction. Whole samples (medium and organ) were homogenized and extracted by equal volumes of acetone followed by evaporation. Extracted samples were dissolved in 50 mM NaOAc buffer and treated with beta-glucosidase to measure the fluorescence of metabolized 7-ethoxycoumarin[6]. […] Samples for HPLC were dissolved in 50% methanol. HPLC analysis was performed using a PEGASIL ODS SP column (φ4.5 mm × 250 mm) with isocratic elution at a flow rate of 1 ml/min.

[5] = mammal, dose 8 mg/kg; cited from earlier work
cytochrome P450 [6] = assay: 7-ethoxycoumarin deethylation activity in silkworm tissue culture (fluorometry); format: in vitro ADME, Bombyx mori (silkworm); conditions: midgut incubated with 7-ethoxycoumarin and cimetidine at 30 °C
Method: Figure 2 Tissue specificity of 7-ethoxycoumarin deethylation activity in silkworm. (A) The midgut, fat body, silk gland, and Malpighian tubule were extirpated from silkworms and incubated in medium containing 7-ethoxycoumarin at 30 °C. Medium was collected, extracted by acetone, and evaporated. Samples […] in 50 mM NaOAc buffer (pH 6.0) were treated with beta-glucosidase. The amount of 7-hydroxycomarin, a metabolite, was determined by fluorometry. (B) Inhibition of 7-ethoxycoumarin deethylation by cimetidine in the silkworm midgut. Silkworm midgut was incubated in medium containing 7-ethoxycoumarin and cimetidine at 30 °C. Samples were collected, extracted by acetone, and treated with beta-glucosidase. The amount of 7-hydroxycomarin was determined by fluorometry.
Samples for HPLC were dissolved in 50% methanol.

Compound: O=C(O)C1CSC(c2nc3ccc(OCc4c(F)c(F)c(F)c(F)c4F)cc3s2)=N1 (stereo not shown) [Luciferin-PFBE]
- Production of luciferin (RFU/organ) (cytochrome P450 [1]): 229,000 RFU/organ

Compound: CCCCCOc1ccc(-c2cc(-c3ccc(C(=O)N[C@H]4C[C@@H](O)[C@@H](O)NC(=O)[C@@H]5[C@@H](O)[C@@H](C)CN5C(=O)[C@H]([C@H](O)CC(N)=O)NC(=O)[C@H]([C@H](O)[C@@H](O)c5ccc(O)c(OS(=O)(=O)O)c5)NC(=O)[C@@H]5C[C@@H](O)CN5C(=O)[C@H]([C@@H](C)O)NC4=O)cc3)no2)cc1 [Micafungin] (X1-[Orn(4R-OH,5R-OH)]T[Hyp][hTyr(3S-OH,4S-OH,3'-OSO3H)][Gln(3R-OH)][Pro(3S-OH,4S-Me)]; lactam 1-C)
- HPLC peak area in hemolymph ([2]; 1 min after injection): 2078182
- HPLC peak area in hemolymph ([2]; 5 min after injection): 1273864
- HPLC peak area in hemolymph ([2]; 20 min after injection): 874882
- HPLC peak area in hemolymph ([2]; 45 min after injection): 1057083
- HPLC peak area in hemolymph ([2]; 60 min after injection): 1430059
- HPLC peak area in hemolymph ([2]; 75 min after injection): 1093500
- HPLC peak area in hemolymph ([2]; 90 min after injection): 1117482
- HPLC peak area in hemolymph ([2]; 120 min after injection): 1017294
- HPLC peak area in hemolymph ([2]; 150 min after injection): 1043908
- HPLC peak area in hemolymph ([2]; 180 min after injection): 936752
- HPLC peak area in hemolymph ([2]; 240 min after injection): 1002362
- HPLC peak area in hemolymph ([2]; 360 min after injection): 970304
- Time-course of the decrease in concentration in hemolymph (in words) [2]: biphasic
- half-life [2]: 12 h
- Cltot (total body clearance) [2]: 0.03 mL/g/h
- Cltot [3]: 0.07 mL/g/h
- Vdss [3]: 0.4 mL/g
- t1/2 [3]: 5.0 h

Compound: COc1ccc2[nH]c([S+]([O-])Cc3ncc(C)c(OC)c3C)nc2c1 (stereo not shown) [Omeprazole]
- Metabolism in the silkworm midgut (in words) (cytochrome P450 [4]): metabolized in the silkworm midgut
- HPLC peak area of substrate, Sample 1 (cytochrome P450 [4]; 0 h): 141638
- HPLC peak area of substrate, Sample 2 (cytochrome P450 [4]; 0 h): 142171
- HPLC peak area of substrate, Sample 1 (cytochrome P450 [4]; 1 h): 117549
- HPLC peak area of substrate, Sample 2 (cytochrome P450 [4]; 1 h): 116381
- HPLC peak area of substrate, Sample 1 (cytochrome P450 [4]; 4 h): 57706
- HPLC peak area of substrate, Sample 2 (cytochrome P450 [4]; 4 h): 60668
- HPLC peak area of substrate, Sample 1 (cytochrome P450 [4]; 20 h): 8164
- HPLC peak area of substrate, Sample 2 (cytochrome P450 [4]; 20 h): 1815

Compound: C[C@]12CC[C@H]3[C@@H](CCC4=CC(=O)CC[C@@]43C)[C@@H]1CC[C@@H]2O [Testosterone]
- Metabolism in the silkworm midgut (in words) (cytochrome P450 [4]; in vitro organ culture, up to 20 h incubation): metabolized in the silkworm midgut
- HPLC peak area of substrate (cytochrome P450 [4]; 0 h): 3160000
- HPLC peak area of substrate (cytochrome P450 [4]; 1 h): 1620000
- HPLC peak area of substrate (cytochrome P450 [4]; 4 h): 1110000
- HPLC peak area of substrate (cytochrome P450 [4]; 20 h): 1210000

Compound: CN[C@H](CC(C)C)C(=O)N[C@H]1C(=O)N[C@@H](CC(N)=O)C(=O)N[C@H]2C(=O)N[C@H]3C(=O)N[C@H](C(=O)N[C@H](C(=O)O)c4cc(O)cc(O)c4-c4cc3ccc4O)[C@H](O)c3ccc(c(Cl)c3)Oc3cc2cc(c3O[C@@H]2O[C@H](CO)[C@@H](O)[C@H](O)[C@H]2O[C@H]2C[C@](C)(N)[C@H](O)[C@H](C)O2)Oc2ccc(cc2Cl)[C@H]1O [Vancomycin]
- HPLC peak area in hemolymph ([2]; 0 min after injection): 6413329
- HPLC peak area in hemolymph ([2]; 1 min after injection): 7258474
- HPLC peak area in hemolymph ([2]; 5 min after injection): 5965159
- HPLC peak area in hemolymph ([2]; 10 min after injection): 4477743
- HPLC peak area in hemolymph ([2]; 15 min after injection): 4233708
- HPLC peak area in hemolymph ([2]; 30 min after injection): 5070602
- HPLC peak area in hemolymph ([2]; 45 min after injection): 4520231
- HPLC peak area in hemolymph ([2]; 60 min after injection): 4399183
- HPLC peak area in hemolymph ([2]; 90 min after injection): 3764336
- HPLC peak area in hemolymph ([2]; 120 min after injection): 4979100
- HPLC peak area in hemolymph ([2]; 180 min after injection): 4348972
- HPLC peak area in hemolymph ([2]; 240 min after injection): 4148058
- Time-course of the decrease in concentration in hemolymph (in words) [2]: biphasic
- half-life [2]: 13 h
- Cltot (total body clearance) [2]: 0.03 mL/g/h
- Cltot [5]: 0.08 mL/g/h
- Vdss [5]: 0.6 mL/g
- t1/2 [5]: 2.6 h

Compound: CN/C(=N/CCSCc1nc[nH]c1C)NC#N [cimetidine]
- Inhibition of 7-ethoxycoumarin deethylation in the silkworm midgut (in words) (cytochrome P450 [6]): inhibited this reaction in the midgut
